Measurements as given in patent US6784192B2, “Piperidine compound and pharmaceutical composition thereof” (Eisai Co., Ltd., priority 2000, dated 2004).

Assays:
[1] = system: atrial muscle of anesthetized thoracotomy dog; assay: Effective refractory period (ERP) in anesthetized thoracotomy dog; type: in vivo; conditions: for Measurement Value of ERP: mean
Text: (1) An anesthetized thoracotomy dog was used for the present experiment. After opening brisket at a median line and cutting epicardium, bipolar electrodes for determination of a potential wave form were respectively stitched at the free walls of right and left atriums. Further, a wire electrode was inserted in the free wall of a right atrium to be fixed and used for electrical simulation.
(2) A program electrical stimulation equipment was connected with the electrode for electrical stimulation at the right atrium, the electrical stimulation was carried out at a stimulation periodical length of 500 mess, and a threshold for the electrical stimulation was measured. The electrical stimulation intensity for the experiments below was set to carry out stimulation at 3-fold of this threshold. However, when the threshold was 0.7 V or less, the electrical stimulation was carried out at 2.0 V. Effective refractory period (ERP) provided early premature stimulation (S2) after the basic stimulation (S1) of 10 times, and the longest linking period in which atrium potential was not generated by the premature stimulation was referred to as ERP, while shortening the linking period (S1-S2) by 5 mess. Similar experiments were also carried out for the respective basic stimulation length (BCL) of 400, 300, 250 and 200 mess (control experiment: 1 series). After carrying out 2 times or more of the control experiments and confirming that ERP was stable, the tested substance was subsequently administered, and similar measurement was carried out. After the tested substance was administered once intravenously for 5 minutes, its keeping dose was subsequently administered intravenously. After 10 minutes of the administration start of the keeping dose, ERP was measured in the respective stimulation frequency. After completion of the one series of measurements, the concentration of the tested substance was increased and the similar experiments were repeated. The ERP and conduction time in the atrium in the respective stimulation frequency were compared with various indices under control condition. The result is shown by mean.

[2] = system: spontaneous nerve discharge of cut left saphenous nerve; assay: Suppression of spontaneous nerve discharge (ectopic firing); type: in vivo; conditions: Test Example 5, rat, intravenous catheter, urethane anesthetized; for ED50: read-out: Ectopic Firing (ID50 mg/kg)
Method: In order to assess the suppression action for spontaneous nerve discharge, the experiment was carried out by a method below, referring to “Burchiel, K J., Exp. Nuerol., 102, 249-253 (1988)”. Namely, for the rat in which spontaneous discharge was observed, the left saphenous nerve was cut off nearby knee articulatio before 1 week or more, and around 3 mm of the nerve was cut off so that the nerve was not adhered again. The left saphenous nerve was exposed under urethane (1 g/kg body weight) anesthetized, and about 1 cm of adjacent portion from the cut portion was peeled from a periphery tissue. Further, a catheter was preliminarily inserted in the vein of a right neck for administration of a compound. The peeled nerve was mounted on a platinum hook electrode, and liquid paraffin was put on it so that the nerve was not dried. The electrode was connected with a fine electrode amplifier, and the value was recorded on a computer through an AD/converter from an oscilloscope. The nerve discharge recorded was assessed by the number of ignition per 10 seconds using an analysis soft (AcqKnowledge).

rabbit atrial muscle = assay: Assessment for rabbit atrial muscle, Vmax; conditions: Test Example 4, right atrial muscle, stimulation frequency 4 Hz, 15 minutes
Method: The specimen of the right atrial muscle which was enucleated from rabbit was used for the present experiment. The electrical stimulation was applied for the right atrial muscle which was enucleated, under conditions: a stimulation duration of 1 mess; a stimulation frequency of 4 Hz; and a stimulation intensity of about 1.2-fold of the threshold. The stimulation was provided from 30 minutes to 60 minutes before start of the experiment, and the condition of the specimen was stabilized. The action potential was recorded according to a glass microelectrode method. 3 M KCl was charged in the glass electrode, inserted in the specimen of the right atrium, and the action potential was recorded. Vmax is the parameter of the maximum upstroke slope of the action potential recorded, and a value which was automatically calculated by an action potential analysis soft (CAPA 1.23 manufactured by Physiotec. Co., Ltd.) was used. After the action potential in a normal Tyrode solution was recorded as control, the action potential after flowing the tested substances at respective concentrations for 15 minutes was recorded. The action of the tested substance for Vmax was calculated as an IC50 value.

[3] = dose 0.3 mg/kg intravenously, BCL 200 msec
[4] = dose 0.3 mg/kg intravenously, BCL 300 msec
[5] = dose 0.3 mg/kg intravenously, BCL 400 msec
[6] = dose 0.3 mg/kg intravenously, BCL 500 msec
[7] = dose 1 mg/kg intravenously, BCL 300 msec
[8] = dose 1 mg/kg intravenously, BCL 400 msec
[9] = dose 1 mg/kg intravenously, BCL 500 msec
[10] = dose 0.1 mg/kg intravenously, BCL 200 msec
[11] = dose 0.1 mg/kg intravenously, BCL 300 msec
[12] = dose 0.1 mg/kg intravenously, BCL 400 msec
[13] = dose 0.1 mg/kg intravenously, BCL 500 msec
[14] = dose 1 mg/kg intravenously, BCL 200 msec
[15] = dose 0.1 mg/kg intravenously, BCL 250 msec
[16] = dose 0.3 mg/kg intravenously, BCL 250 msec

In the case of `COc1ncccc1CCC1CCN(Cc2ccc[nH]c2=O)CC1` [Example 118, 1-[(2-Oxo-1,2-dihydro-3-pyridinyl)methyl]-4-[2-(2-methoxy-3-pyridyl)ethyl]piperidine], the “Measurement Value of ERP” value [1, 3] was 130 ms, the “Measurement Value of ERP” value [1, 4] was 160 ms and the “Measurement Value of ERP” value [1, 5] was 180 ms. The “Measurement Value of ERP” value [1, 6] was 190 ms, the “Measurement Value of ERP” value [1, 7] was 190 ms and the “Measurement Value of ERP” value [1, 8] was 215 ms. For the same molecule, the “Measurement Value of ERP” value [1, 9] was 220 ms.
In the case of `O=C(O)C(=O)O.O=c1[nH]cccc1CN1CCC(C#Cc2ccccc2OCC2CCCCC2)CC1` [Example 349, 1-[(2-Oxo-1,2-dihydro-3-pyridinyl)methyl]-4-[2-[(2-cyclohexylmethyloxy)phenyl]-1-ethynyl]piperidine oxalate], the “Ectopic Firing (ID50 mg/kg)” value [2] was 0.17 mg/kg.
For `O=c1[nH]cc(Cl)cc1CN1CCC(/C=C/c2ccccc2F)CC1` [Example 334, 1-[(5-Chloro-2-oxo-1,2-dihydro-3-pyridinyl)methyl]-4-[(E)-2-(2-fluorophenyl)-1-ethenyl]piperidine], the IC50 (rabbit atrial muscle; Oryctolagus cuniculus, 0.25 h) was 17.5 µM and the ED50 [2] was 0.03 mg/kg.
`O=C(O)C(=O)O.O=c1[nH]cccc1CN1CCC(/C=C/c2ccccc2OCC2CCCCC2)CC1` [Example 343, 1-[(2-Oxo-1,2-dihydro-3-pyridinyl)methyl]-4-[(E)-2-[(2-cyclohexylmethyloxy)phenyl]-1-ethenyl]piperidine oxalate] was tested, and the IC50 (rabbit atrial muscle) was 30 µM and the “Ectopic Firing (ID50 mg/kg)” value [2] was 0.13 mg/kg.
For `O=c1[nH]cccc1CN1CCC(CCc2nccs2)CC1` [Example 109, 1-[(2-Oxo-1,2-dihydro-3-pyridinyl)methyl]-4-[2-(1,3-thiazol-2-yl)ethyl]piperidine], the “Measurement Value of ERP” value [1, 10] was 110 ms, the “Measurement Value of ERP” value [1, 11] was 140 ms and the “Measurement Value of ERP” value [1, 12] was 165 ms. For the same molecule, the “Measurement Value of ERP” value [1, 13] was 185 ms, the “Measurement Value of ERP” value [1, 3] was 130 ms and the “Measurement Value of ERP” value [1, 4] was 155 ms. The “Measurement Value of ERP” value [1, 5] was 185 ms, the “Measurement Value of ERP” value [1, 6] was 200 ms and the “Measurement Value of ERP” value [1, 14] was 150 ms. For the same molecule, the “Measurement Value of ERP” value [1, 7] was 175 ms, the “Measurement Value of ERP” value [1, 8] was 215 ms and the “Measurement Value of ERP” value [1, 9] was 235 ms.
Molecule `N#Cc1c[nH]c(=O)c(CN2CCC(/C=C/c3ccccc3F)CC2)c1` [Example 351, 1-[(5-Cyano-2-oxo-1,2-dihydro-3-pyridinyl)methyl]-4-[(E)-2-(2-fluorophenyl)-1-ethenyl]piperidine] has an ED50 [2] of 0.17 mg/kg.
Work on `O=c1[nH]cc(F)cc1CN1CCC(/C=C/c2ccccc2F)CC1` [Example 335, 1-[(5-Fluoro-2-oxo-1,2-dihydro-3-pyridinyl)methyl]-4-[(E)-2-(2-fluorophenyl)-1-ethenyl]piperidine] yielded an IC50 (rabbit atrial muscle; Oryctolagus cuniculus, 0.25 h) of 7.8 µM and an ED50 [2] of 0.034 mg/kg.
`O=c1[nH]cccc1CN1CCC(CCc2cccc3c2OCO3)CC1` [Example 128, 1-[(2-Oxo-1,2-dihydro-3-pyridinyl)methyl]-4-(2,3-methylenedioxyphenethyl)piperidine] was tested, and the “Measurement Value of ERP” value [1, 10] was 125 ms, the “Measurement Value of ERP” value [1, 11] was 160 ms and the “Measurement Value of ERP” value [1, 12] was 175 ms. For the same molecule, the “Measurement Value of ERP” value [1, 13] was 185 ms, the “Measurement Value of ERP” value [1, 3] was 155 ms and the “Measurement Value of ERP” value [1, 4] was 180 ms. The “Measurement Value of ERP” value [1, 5] was 195 ms, the “Measurement Value of ERP” value [1, 6] was 210 ms and the “Measurement Value of ERP” value [1, 7] was 215 ms. For the same molecule, the “Measurement Value of ERP” value [1, 8] was 250 ms and the “Measurement Value of ERP” value [1, 9] was 280 ms.
In the case of `O=C(O)C(=O)O.O=c1[nH]cccc1CN1CCC(/C=C\c2ccccc2OCC2CCCCC2)CC1` [Example 344, 1-[(2-Oxo-1,2-dihydro-3-pyridinyl)methyl]-4-[(Z)-2-[(2-cyclohexylmethyloxy)phenyl]-1-ethenyl]piperidine oxalate], the IC50 (rabbit atrial muscle) was 30 µM and the “Ectopic Firing (ID50 mg/kg)” value [2] was 0.19 mg/kg.
With `C#CCN(CC#C)C(=O)C[C@H]1CCCCN1Cc1cccn(CC(F)(F)F)c1=O` [Example 194, N1,N1-Di(2-propynyl)-2-[(2R)-1-[[2-oxo-1-(2,2,2-trifluoroethyl)-1,2-dihydro-3-pyridinyl)methyl]hexahydro-2-pyridinyl]acetamide] the “Measurement Value of ERP” value [1, 10] was 110 ms, the “Measurement Value of ERP” value [1, 15] was 120 ms and the “Measurement Value of ERP” value [1, 11] was 135 ms. The “Measurement Value of ERP” value [1, 12] was 155 ms, the “Measurement Value of ERP” value [1, 13] was 165 ms and the “Measurement Value of ERP” value [1, 3] was 125 ms. For the same molecule, the “Measurement Value of ERP” value [1, 16] was 126 ms, the “Measurement Value of ERP” value [1, 4] was 145 ms and the “Measurement Value of ERP” value [1, 5] was 165 ms. For the same molecule, the “Measurement Value of ERP” value [1, 6] was 175 ms, the “Measurement Value of ERP” value [1, 14] was 145 ms and the “Measurement Value of ERP” value ([1]; dose 1 mg/kg intravenously, BCL 250 msec) was 155 ms. The “Measurement Value of ERP” value [1, 7] was 170 ms, the “Measurement Value of ERP” value [1, 8] was 195 ms and the “Measurement Value of ERP” value [1, 9] was 210 ms.
With `Cc1ccccc1/C=C/C1CCN(Cc2cc(Cl)c[nH]c2=O)CC1` [Example 337, 1-[(5-Chloro-2-oxo-1,2-dihydro-3-pyridinyl)methyl]-4-[(E)-2-(2-methylphenyl)-1-ethenyl]piperidine] the ED50 [2] was 0.3 mg/kg.
`O=C(O)C(=O)O.O=c1[nH]cc(F)cc1CN1CCC(/C=C/c2ccccc2OCC2CCCCC2)CC1` [Example 345, 1-[(5-Fluoro-2-oxo-1,2-dihydro-3-pyridinyl)methyl]-4-[(E)-2-[(2-cyclohexylmethyloxy)phenyl]-1-ethenyl]piperidine oxalate] was tested, and the “Ectopic Firing (ID50 mg/kg)” value [2] was 0.4 mg/kg.
`COc1ccccc1C(=O)CC1CCN(Cc2ccc[nH]c2=O)CC1` [Example 144, 1-[(2-Oxo-1,2-dihydro-3-pyridinyl)methyl]-4-[2-(2-methoxyphenyl)-2-oxoethyl]piperidine] was tested, and the “Measurement Value of ERP” value [1, 10] was 140 ms, the “Measurement Value of ERP” value [1, 15] was 155 ms and the “Measurement Value of ERP” value [1, 11] was 165 ms. The “Measurement Value of ERP” value [1, 12] was 190 ms, the “Measurement Value of ERP” value [1, 13] was 200 ms and the “Measurement Value of ERP” value [1, 3] was 155 ms. For the same molecule, the “Measurement Value of ERP” value [1, 16] was 165 ms, the “Measurement Value of ERP” value [1, 4] was 180 ms and the “Measurement Value of ERP” value [1, 5] was 200 ms. The “Measurement Value of ERP” value [1, 6] was 215 ms.
`C#CCN(CC#C)C(=O)C[C@H]1CCCCN1Cc1ccc[nH]c1=O` [Example 191, N1,N1-Di(2-propynyl)-2-[(2R)-1-[(2-oxo-1,2-dihydro-3-pyridinyl)methyl]-2-piperidyl]acetamide] was tested, and the “Measurement Value of ERP” value [1, 3] was 135 ms, the “Measurement Value of ERP” value [1, 4] was 155 ms and the “Measurement Value of ERP” value [1, 5] was 165 ms. The “Measurement Value of ERP” value [1, 6] was 175 ms, the “Percent change in ERP versus pre-dose control” value (from here on “Percent change”) ([1]; dose 0.3 mg/kg, BCL 300 msec) was 14.8% and the “Percent change” value ([1]; dose 0.3 mg/kg, BCL 400 msec) was 6.5%. The “Percent change” value ([1]; dose 0.3 mg/kg, BCL 500 msec) was 9.4%, the “Measurement Value of ERP” value [1, 14] was 150 ms and the “Measurement Value of ERP” value [1, 7] was 170 ms. For the same molecule, the “Measurement Value of ERP” value [1, 8] was 185 ms, the “Measurement Value of ERP” value [1, 9] was 195 ms and the “Percent change” value ([1]; dose 1 mg/kg, BCL 300 msec) was 25.9%. The “Percent change” value ([1]; dose 1 mg/kg, BCL 400 msec) was 19.4% and the “Percent change” value ([1]; dose 1 mg/kg, BCL 500 msec) was 21.9%.
